# Reference: the supplement of paper PMC11208160
# Assay: recombinant barcode read abundance after kanamycin selection (control-corrected) (log10(CPM+1)); higher = more efficient recombination; sequences stand for … in AGTGCAGAGAAAATCGGCCAGTTTTCTCTGCCTGCAGTCCGCATGCCGT…AGATTTATGCAGCGGACTGCCTTTCTCCCAAAGTGATAAACCGGACAGTATCATGGACCGGTTTTCCCGGTAATCCGTATTTGCAAGGTTGGTTTCACT; site = the 11-nt target
# Outline: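 Recombination efficiency comes from barcode counts at recombinant junctions, converted to counts per million, averaged and corrected against the control. Values appear as log10(CPM+1). They were obtained from a pooled E. coli screen in which each oligo paired a target with an IS621 bridge RNA target-binding loop, and cells were plated in duplicate on chloramphenicol/ampicillin LB agar or on chloramphenicol/ampicillin/kanamycin with 0.1 mM IPTG.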
# 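Note: IS621 recombinase and bridge RNA in Escherichia coli cells.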
row,Sequence,recombinant barcode read abundance (log10)
1,GCCGGGGCTTGGGTTCTAACCTGTTGCCG (site GCCAGGGCTCG),0.262
2,GCCGGGGCTTGGGTTCTAACCTGTTGCCG (site GCCCGGGCTCG),0.452
3,GCCGGGGCTTGGGTTCTAACCTGTTGCCG (site GCCGGGGCTCG),0.186
4,GCCGGGGCTTGGGTTCTAACCTGTTGCCG (site GCCTGGGCTCG),0.258
5,GCCGTCCCTTGGGTTCTAACCTGTTGCTA (site GCCGTCCCTTA),0.202
6,GCCGTCCCTTGGGTTCTAACCTGTTGCTA (site GTCGTCCCTTG),0.106
7,GCCGTCTCTTGGGTTCTAACCTGTTGCCT (site GCCATCTCTAG),0.114
8,GCCGTCTCTTGGGTTCTAACCTGTTGCCT (site GCCGTCTCTAG),0.135
9,GCCTCGCCTTGGGTTCTAACCTGTTGCAG (site GCCACGCCTCT),0.341
10,GCCTCGCCTTGGGTTCTAACCTGTTGCAG (site GCCCCGCCTCT),0.133
11,GCCTCGCCTTGGGTTCTAACCTGTTGCAG (site GCCGCGCCTCT),0.326
12,GCCTCGCCTTGGGTTCTAACCTGTTGCAG (site GCCTCGCCTCT),0.229
13,GCCTGCCCTTGGGTTCTAACCTGTTGCTG (site GCCTGCCCTCA),1.51
14,GCCTGCCCTTGGGTTCTAACCTGTTGCTG (site TGGGTGACTAG),0.0502
15,GCGAAGTCTTGGGTTCTAACCTGTTGCTT (site GCGAACACTAA),0.0375
16,GCGAAGTCTTGGGTTCTAACCTGTTGCTT (site GCGAAGTCTAA),1.15
17,GCGAATCCTTGGGTTCTAACCTGTTGCCT (site GCGAATCCTAG),0.845
18,GCGAATCCTTGGGTTCTAACCTGTTGCCT (site GCGCATCCTAG),0.213
19,GCGAATCCTTGGGTTCTAACCTGTTGCCT (site GCGGATCCTAG),0.069
20,GCGAATCCTTGGGTTCTAACCTGTTGCCT (site GCGTATCCTAG),0.099
21,GCGACTCCTTGGGTTCTAACCTGTTGCAT (site GCGACTCCTAT),0.857
22,GCGACTCCTTGGGTTCTAACCTGTTGCAT (site GCGCCTCCTAT),0.118

row,Sequence,recombinant barcode read abundance (log10)
1,GCGACTCCTTGGGTTCTAACCTGTTGCAT (site GCGGCTCCTAT),0.14
2,GCGACTCCTTGGGTTCTAACCTGTTGCAT (site GCGTCTCCTAT),0.0718
3,GCGACTCCTTGGGTTCTAACCTGTTGCTA (site GAGACTCCTTA),0.739
4,GCGACTCCTTGGGTTCTAACCTGTTGCTA (site GCGACTCCTTA),0.619
5,GCGAGCTCTTGGGTTCTAACCTGTTGCCT (site GCGAGCTCTAG),1.6
6,GCGAGCTCTTGGGTTCTAACCTGTTGCCT (site GCGCGTTCTAG),0.291
7,GCGATGTCTTGGGTTCTAACCTGTTGCCT (site GAGATGTCTAG),0.183
8,GCGATGTCTTGGGTTCTAACCTGTTGCCT (site GCGATGTCTAG),1.33
9,GCGATGTCTTGGGTTCTAACCTGTTGCCT (site GGGATGTCTAG),0.514
10,GCGATGTCTTGGGTTCTAACCTGTTGCCT (site GTGATGTCTAG),0.116
11,GCGCGGCCTTGGGTTCTAACCTGTTGCTT (site GCACGCCCTAA),0.0904
12,GCGCGGCCTTGGGTTCTAACCTGTTGCTT (site GCGCGGCCTAA),0.492
13,GCGCTAACTTGGGTTCTAACCTGTTGCCT (site GCGCTAACTAG),1.05
14,GCGCTAACTTGGGTTCTAACCTGTTGCCT (site TCGCTAACTAG),0.169
15,GCGCTCCCTTGGGTTCTAACCTGTTGCCT (site GCACTCCCTAG),1.25
16,GCGCTCCCTTGGGTTCTAACCTGTTGCCT (site GCCCTCCCTAG),0.388
17,GCGCTCCCTTGGGTTCTAACCTGTTGCCT (site GCGCTCCCTAG),0.926
18,GCGCTCCCTTGGGTTCTAACCTGTTGCCT (site GCTCTCCCTAG),0.145
19,GCGGACTCTTGGGTTCTAACCTGTTGCCA (site GCGGACTCTTG),2.09
20,GCGGACTCTTGGGTTCTAACCTGTTGCCA (site GCGTACTCTAG),0.0401
21,GCGGAGTCTTGGGTTCTAACCTGTTGCGT (site GCGGAGTCTAC),1.45
